# Measurements taken from patent US11129840B2, “Methods for identifying novel dosing regimens” (Zavante Therapeutics, Inc., priority 2017, dated 2021).
# Key:
# [1] = tested on: Carbapenem-resistant Enterobacteriaceae (CRE) clinical isolates; experiment: Susceptibility testing, CRE clinical isolates; type: cell-based; conditions: 50 isolates
# Pa isolates = experiment: Time kill assays against 12 isolates; type: cell-based, Pseudomonas aeruginosa; conditions: tested alone, FOS-S isolates; >3-log10 reduction at 12 and/or 24 hours
# Procedure: Forty-three Pa isolates (recovered from unique patients) were selected for testing. […] Interactions between FOS and other agents were determined by double disc testing on Mueller Hinton agar. Discs containing 300 μg FOS and 50 G6P were used, along with commercially available Kirby Bauer discs for other agents. Intravenous FOS MIC breakpoints are not established. […] Time kill assays against 12 isolates were performed for FOS, CAZ-AVI, CFT-TAZ and PIP-TAZ (alone, and each agent in combination with FOS) at the respective MIC (or breakpoint MIC for resistant isolates). Bactericidal activity during time-kills was defined as >3-log10 reduction at 12 and/or 24 hours, compared to starting inoculum. Synergy during time-kills was defined as >2-log10 reduction at 12 and/or 24 hours, compared to best single agent alone.
# [2] = tested on: ESBL-producing K. pneumoniae isolate; experiment: Time-kill kinetic analysis; type: cell-based, Klebsiella pneumoniae; conditions: CAZ ¼ and 1×MIC, by 4-8 h
# Procedure: Broth microdilution for FOS (Mueller-Hinton broth supplemented with 25 μg/mL glucose-6-phosphate) and comparators was performed before performing TKK. TKK employed MIC multiples for FOS, and ¼ and 1×MIC of select comparators, and combinations of FOS and comparator. TKK were sampled for colony counts at T0, T2, T4, T8 and T24 hours (h). Two Klebsiella pneumoniae isolates (one KPC and one ESBL), two Pseudomonas aeruginosa isolates (non-MDR), and one Acinetobacter baumannii isolate (MDR) were tested.
Molecule,Non-susceptiblity rate [1] [%],% of isolates with bactericidal activity (Pa isolates) [%],decrease in CFU [2]
Gentamicin,54,,
ceftolozane-tazobactam [C-T],43,8,
"CC(C)(O/N=C(\C(=O)N[C@@H]1C(=O)N2C(C(=O)[O-])=C(C[n+]3ccccc3)CS[C@H]12)c1csc(N)n1)C(=O)O [CAZ, ceftazidime]",92,,0.9-2.1 log10 CFU
ceftazidime-avibactam [C-A],6,8,
"C[C@@H](O)[C@H]1C(=O)N2C(C(=O)O)=C(S[C@@H]3CN[C@H](C(=O)N(C)C)C3)[C@H](C)[C@H]12 [MEM, Meropenem]",82,,
"C[C@@H](O)[C@H]1C(=O)N2C(C(=O)O)=C(SCCN=CN)C[C@H]12 [IMP, Imipenem]",86,,
Piperacillin-tazobactam [PTZ],96,8,
